# From patent publication US20260160767A1, “Biosynthetic Method for Preparing 10-Hydroxy-2-Decenoic Acid and Use Thereof in Skin Care” (SHANDONG FREDA BIOTECH CO., LTD., priority 2023, published 2026)
# Columns and labels:
# Format in all cases: cell-based
# [1] = system: fibroblasts; assay: Mitochondrial function in UV-A irradiated fibroblasts (mitochondrial ROS, ATP, NADP+/NADPH and JC-1 kits); conditions: 10-HDA 0.25 mg/mL, UV-A 30 J/cm^2, 24 hours after irradiation, relative to irradiated control; for inhibition at 250 µg/mL: Fibroblast, light or radiation study
# Description: Fibroblasts were seeded into a 6-well plate at a seeding density of 2.2×10^5 cells/well and incubated overnight in an incubator (37° C., 5% CO2). When the confluence reached 40%-60%, 2 mL of culture medium containing a corresponding concentration of a test substance was added to each well according to different groups. The BC group was a blank control group without any drug intervention and was cultured only in 2 mL normal medium. The NC group was a negative control group without any drug intervention and was cultured only in 2 mL normal medium. The PC group was a positive control group containing VE at a final concentration of 7 μg/mL. The sample group contained 10-HDA at a final concentration of 0.25 mg/mL. After drug incubation for 24 hours, according to test grouping, the NC group, PC group, and sample group were subjected to UV-A irradiation at a dose of 30 J/cm^2. After irradiation, the cells were further cultured for 24 hours in an incubator (37° C., 5% CO2). After incubation, mitochondrial functions were assessed according to instructions of a mitochondrial ROS detection kit, a mitochondrial ATP detection kit (Beyotime), a mitochondrial NADP^+/NADPH detection kit (WST-8 method), and a JC-1 mitochondrial membrane potential detection kit.
# [2] = system: 3D epidermal model; assay: Regulation of ceramides and fatty acids in a 3D epidermal model (stratum corneum lipid extraction, LC-MS); conditions: 10-HDA 0.0625 mg/mL; relative to untreated control system
# Description: The model was transferred to a 6-well plate pre-filled with 3.7 mL/well model culture medium and incubated for 24 hours in a CO2 incubator (37° C., 5% CO2). The positive control (PC) group contained WY-14643 (pirinixic acid) at a final concentration of 50 μM. In the sample group, 10-HDA was at a final concentration of 0.0625 mg/mL. After incubation, each model was cut into two halves. One half was used for protein measurement, and the other half was used for lipid extraction and placed in a 6-well plate (the model was stored at −80° C.). For lipid extraction, 1 mL trypsin was added to each well of the 6-well plate and incubated for 30 minutes in an incubator. Water was added on the lid of the 6-well plate. The model and the nylon membrane were separated with tweezers, and viscous material on the stratum corneum was peeled off with tweezers. Water on the stratum corneum was blotted dry with paper, and the stratum corneum was placed into a glass tube. 1 mL chloroform:methanol mixture (chloroform:methanol=1:1) was added to each glass tube. The tube was ultrasonicated in an ice bath for 30 minutes. The supernatant was transferred to a vial and evaporated to dryness. To the dried vial, 160 μL acetonitrile: isopropanol mixture (acetonitrile:isopropanol=1:1) was added, and 20 μL ceramide C12 internal standard solution was added (the ceramide internal standard solution having a concentration of 100 μg/mL, with the internal standard solvent being a 1:1 mixture of acetonitrile and isopropanol). The mixture was ultrasonicated for 10 minutes and shaken for dissolution for 30 minutes, transferred to a sample centrifuge tube, centrifuged at 12,000 rpm for 10 minutes, and 100 μL of the upper layer was transferred into a 250 μL insert. LC-MS detection was performed using a Thermo Fisher Orbitrap Q Exactive™ quadrupole-Orbitrap high-resolution mass spectrometer.
# Mass spectrometry conditions were as follows: mass spectrometry analysis was performed using a quadrupole-Orbitrap mass spectrometer equipped with a heated electrospray ionization source. Ion source voltages for positive and negative modes were 3.7 kV and 3.5 kV, respectively. Capillary heating temperature was 320° C. Sheath gas pressure was 30 psi, and auxiliary gas pressure was 10 psi. Heated vaporizer temperature was 300° C. Both sheath gas and auxiliary gas were nitrogen. Collision gas was nitrogen at a pressure of 1.5 mTorr. Full MS scan parameters were: resolution 70,000; automatic gain control target 1×10^6; […] 50 ms; and m/z scan range 50-1500. The LC-MS system was controlled by Xcalibur 2.2 SP1.48 software, and data acquisition was also controlled by the software.
# [3] = system: fibroblasts; assay: DNA damage products 8-OHdG (kit) and γ-H2AX (immunofluorescence) in UV-A irradiated fibroblasts; conditions: Fibroblast, light or radiation study, 10-HDA 0.25 mg/mL, UV-A 30 J/cm^2, 24 hours after irradiation, relative to irradiated control without 10-HDA
# Description: Fibroblasts were seeded into a 6-well plate at a seeding density of 2.2×10^5 cells/well and incubated overnight in an incubator (37° C., 5% CO2). When the confluence reached 40%-60%, 2 mL of culture medium containing a corresponding concentration of a test substance was added to each well according to different groups. The BC group was a blank control group without any drug intervention and was cultured only in 2 mL normal medium. The NC group was a negative control group without any drug intervention and was cultured only in 2 mL normal medium. The PC group was a positive control group containing VE at a final concentration of 7 μg/mL. The sample group contained 10-HDA at a final concentration of 0.25 mg/mL. After drug incubation for 24 hours, according to test groups, the NC group, PC group, and sample group were subjected to UV-A irradiation at a dose of 30 J/cm^2. After irradiation, the cells were further cultured for 24 hours in an incubator (37° C., 5% CO2). After incubation, cell culture supernatants were collected and tested according to the operation instructions of an 8-OHdG kit. […] Images were acquired under a fluorescence microscope and analyzed using Image-Pro® Plus image processing software.
# [4] = system: fibroblasts; assay: Telomere length by qPCR (T/S ratio) in H2O2-stimulated fibroblasts; conditions: positive control 1 mg/mL; cells from adult; H2O2 stimulation three days, 2 hours each; five passages
# Description: Fibroblasts were seeded into a 6-well plate at a seeding density of 2.2×10^5 cells/well and incubated overnight in an incubator (37° C., 5% CO2). When the confluence reached 40%-60%, 2 mL of culture medium containing a corresponding concentration of a test substance was added to each well according to different groups. The BC group was a blank control group, wherein the cells were derived from back skin of children aged 7-8 years, and no drug intervention was performed during cultivation. The NC group was a negative control group, wherein the cells were derived from back skin of an adult. When the confluence reached 40%-60%, H2O2 stimulation was applied for three consecutive days, with each stimulation lasting 2 hours, and samples were collected for detection after continuous passaging for five passages. The PC group was a positive control group, wherein the cells were derived from back skin of an adult. When the confluence reached 40%-60%, H2O2 stimulation was applied for three consecutive days, with each stimulation lasting 2 hours. During the stimulation period, the cells were cultured in a medium containing cycloastragenol at a final concentration of 1 mg/mL. Samples were collected for detection after continuous passaging for five passages. […] Genomic DNA (gDNA) was obtained using a genomic DNA extraction kit, and telomere length was determined by qPCR using gDNA as a template.
Structure (SMILES),NADPH content increase [1],mitochondrial ATP content increase [1],inhibition at 250 µg/mL ([1]; read-out: early apoptosis rate inhibition rate),inhibition at 250 µg/mL ([1]; read-out: mitochondrial ROS inhibition rate),ceramide/protein (total ceramide normalized by sample protein amount) increase [2],fatty acid/protein (total fatty acid normalized by sample protein amount) increase [2],total ceramide increase [2],total fatty acid increase [2],"inhibition at 250 µg/mL ([3]; immunofluorescence, read-out: γ-H2AX inhibition rate)",inhibition at 250 µg/mL ([3]; read-out: 8-OHdG inhibition rate),telomere length increase relative to the NC group [4]
"O=C(O)C=CCCCCCCCO [10-HDA, 10-hydroxy-2-decenoic acid]",15.13%,56.23%,12.7%,70.7%,47.64%,39.0%,35.37%,27.51%,47.2%,45.1%,–
"CC(C)(O)[C@@H]1CC[C@](C)([C@H]2[C@@H](O)C[C@@]3(C)[C@@H]4C[C@H](O)[C@H]5C(C)(C)[C@@H](O)CC[C@@]56C[C@@]46CC[C@]23C)O1 [cycloastragenol, reference compound]",–,–,–,–,–,–,–,–,–,–,43.1%
